Measured values as given in patent US20090227606A1, “Methods for Preventing or Treating Acute and Chronic Pain” (priority 2006, published 2009).
Entries after “also recorded” stand apart in the source; their conditions may differ.

Columns and labels:
[1] = test system: primary cultured astrocytes; assay: Astrocyte morphology and process length, phase contrast microscopy; assay type: cell-based, rat; details: 3 days or 7 days of treatment, phase contrast microscopy
Experimental: Astrocyte cultures were prepared from the cortices of neonatal rats (1-3 days old) using the Worthington Papain Dissociation System (Worthington Biochemical Corporation, Lakewood, N.J.) according to the method of Huettner and Baughman (1986. J. Neurosci. 6:3044-3060). Briefly, cortices of neonatal rats were dissected, treated with papain (20 U/ml), dissociated by trituration and plated in 75 cm^2 flasks in Dulbecco's modified Eagle's medium (DMEM) supplemented with 10% charcoal-stripped fetal bovine serum (FBS), 1% GlutaMax and 1% penicillin/streptomycin (P/S, 100 U/ml penicillin, 100 μg/ml streptomycin, P/S). Cells were fed twice weekly until they reached confluence (Day in vitro, DIV 10-12) at which point they were mechanically shaken for 1 hr on an orbital shaker to remove any remaining oligodendrocytes and microglia. Subsequently, cultures were treated with trypsin for 30 minutes at 37° C. and re-plated into 6 or 12-well dishes at a density of about 3.0×10^4 cells/cm^2. Resultant cultures were greater than 95% astrocytic as determined by GFAP immunostaining.
After approximately 14 days (2 days after subplating into plates, DIV 14) astrocytes had formed a confluent monolayer. […] Phase contrast microscopy was then carried out in order to assess the morphology of cells after the various treatments. Length of astrocyte processes was quantified by measuring all processes in 2-3 phase contrast images/group by an independent observer, blinded to the treatment groups using Image J v1.34s (National Institutes of Health, Bethesda, Md.).

[2] = test system: cultured astrocytes; assay: Reversibility of astrocyte phenotype change after 7 day washout; assay type: cell-based, rat; details: 7 days treatment (high dose), then 7 day washout in control media
Experimental: In order to ensure that the morphological effects of propentofylline on astrocytes were due to specific pharmacological effects and not due to toxicity, experiments were performed to determine if the phenotype change observed was reversible.

[3] = test system: GLT-1 mRNA; assay: Real Time RT-PCR of ipsilateral lumbar spinal cord, GLT-1 mRNA; assay type: in vivo, rat; details: daily intrathecal
Experimental: Tissue was collected from 4-5 rats/group on postoperative days 4 or 12. In order to obtain both mRNA and protein from the same tissue sample, the L5 region of the spinal cord (ipsilateral to the injury), was isolated and placed in PBS supplemented with protease inhibitor cocktail (1:1000, Sigma Chemical Co., St. Louis, Mo.) and RNase inhibitor (0.75 U/μL Ambion, Austin, Tex.). Samples were sonicated in five one-second bursts at half-maximal power, centrifuged at 6500 rpm for 15 minutes at 4° C. Protein-containing supernatants were collected and stored at −80° C. until further processing by Western blot analysis. […]
Real time RT-PCR reactions were carried out in a total reaction volume of 25 μL containing a final concentration of 1.5 U Platinum Taq DNA polymerase (Invitrogen Corporation, Carlsbad, Calif.); 20 mM Tris HCl (pH 8.4); 50 mM KCl; 3 mM MgCl2; 200 μM dGTP, dCTP, and dATP; 400 μM dUTP and 1 U of UDG (uracyl DNA glycosylase); 900 nM of forward and reverse primers; 300 nM Taqman probe; and 5 μL of a 10-fold dilution of cDNA (50 ng) from the RT step. The iCycler™ Multicolor Real-Time PCR detection system (Bio-Rad, Hercules, Calif.) was used to quantify PCR product. […] The relative fold change from control was then expressed by calculation of 2^−ΔΔC^T for each sample and the results are expressed as the group mean fold change±SEM.

[4] = test system: GLAST; assay: Western blot of ipsilateral lumbar spinal cord, GLAST protein; assay type: in vivo, rat; details: day 12 post-transection
Experimental: Tissue was collected from 4-5 rats/group on postoperative days 4 or 12. In order to obtain both mRNA and protein from the same tissue sample, the L5 region of the spinal cord (ipsilateral to the injury), was isolated and placed in PBS supplemented with protease inhibitor cocktail (1:1000, Sigma Chemical Co., St. Louis, Mo.) and RNase inhibitor (0.75 U/μL Ambion, Austin, Tex.). Samples were sonicated in five one-second bursts at half-maximal power, centrifuged at 6500 rpm for 15 minutes at 4° C. Protein-containing supernatants were collected and stored at −80° C. until further processing by Western blot analysis. The pellet was treated with TRIzol reagent (Invitrogen, Carlsbad, Calif.) for the extraction of total RNA according to the manufacturer's specifications.
Protein obtained from L5 lumbar spinal cord was quantified using the Lowry method (DC assay, Bio-Rad, Hercules, Calif.). Forty micrograms of protein and standard protein markers were subjected to SDS polyacrylamide gel electrophoresis (7.5% gel, Bio-Rad, Hercules, Calif.) and id transferred to polyvinylidene difluoride (PVDF, Bio-Rad, Hercules, Calif.) filters. Nonspecific binding was blocked by incubation with 5% milk/PBS-T at room temperature for 1 hour followed by incubation overnight at 4° C. with monoclonal guinea pig anti-GLT-1 or guinea pig anti-GLAST (1:2500, Chemicon). […]

[5] = test system: adenosine transport; details: literature; cited from earlier work

## CCCn1cnc2c1c(=O)n(CCCCC(C)=O)c(=O)n2C [propentofylline]
[1]
  astrocyte morphology: dose-dependent shift from a flat, polygonal shape to a stellate, process-bearing shape
[2]
  reversibility of morphological change: reversal was more complete in propentofylline-treated cells
[3]; day 4 post-transection
  GLT-1 mRNA in lumbar spinal cord: enhanced; also recorded: significantly increased levels of GLT-1 mRNA
[3]; day 12 post-transection
  GLT-1 mRNA in lumbar spinal cord: enhanced; also recorded: significantly increased levels of GLT-1 mRNA
[4]
  GLAST protein: further decreased by propentofylline treatment; also recorded: slight decrease
[5]
  adenosine transport: inhibit adenosine transport
